Reference: patent US8846656B2, “Tetrahydropyrido-pyridine and tetrahydropyrido-pyrimidine compounds and use thereof as C5a receptor modulators” (Novartis AG, priority 2011, dated 2014)
Values joined by “and” are separate entries in the source; they are usually repeats but may differ in a detail not shown here. Identical values can stand only once.

biological target: human C5aR (Homo sapiens (Human), UniProt P21730); test: FLIPR assay: inhibition of C5a-mediated calcium mobilization; format: cell-based; conditions: stable cell line over expressing human C5aR & Gα15, human C5a at EC50 (0.1-0.25 nM)
Sequence (P21730 whole entry): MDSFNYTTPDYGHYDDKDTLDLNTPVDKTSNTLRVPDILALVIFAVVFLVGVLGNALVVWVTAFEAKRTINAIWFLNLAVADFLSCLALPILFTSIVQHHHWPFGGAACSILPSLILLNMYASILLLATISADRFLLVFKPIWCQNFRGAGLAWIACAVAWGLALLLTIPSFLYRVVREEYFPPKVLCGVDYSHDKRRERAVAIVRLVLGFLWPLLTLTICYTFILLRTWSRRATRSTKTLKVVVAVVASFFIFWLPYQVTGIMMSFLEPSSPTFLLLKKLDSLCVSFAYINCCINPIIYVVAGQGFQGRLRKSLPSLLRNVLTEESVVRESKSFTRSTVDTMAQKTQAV
Experimental: Compounds were tested for their ability to inhibit C5a-mediated calcium mobilization using a stable cell line over expressing the human C5aR & the Gα15 protein on the FLIPR (Fluorescent Imaging Plate Reader) Tetra system. Cells were maintained in culture media containing DMEM (Dulbecco's Modified Eagle Medium) with 4.5 g/L glucose, 10% fetal bovine serum, 100 U/mL, 1× non-essential amino acid, and 250 μg/mL G418 (Geneticin). Prior to testing of compounds, cells were plated at 10,000 cells/well in clear bottom 384-well black plate, and incubated overnight at 37° C. with 5% CO2. On the day of experiment, culture media was removed, and replaced with assay buffer HBSS (Hanks' Balanced Salt Solution) with 20 mM HEPES (4-(2-hydroxyethyl)-1-piperazineethanesulfonic acid) and 0.1% BSA (bovine serum albumin) BSA containing calcium 5 dye (Molecular Devices) and 2.5 mM probenecid. After 1 hour incubation at 37° C., 5% CO2 for 60 min, cells were pre-incubated with compounds for 30 minutes at room temperature, in 1% DMSO (dimethyl sulfoxide).

Compared with `Cc1ccc(C(C)C)cc1N1CCc2nc(-c3c(C)ccc4[nH]ncc34)nc(N3CCN(CC(N)=O)C[C@H]3C)c2C1` [Example 24-L, (R)-2-(4-(6-(5-isopropyl-2-methylphenyl)-2-(5-methyl-1H-indazol-4-yl)-5,6,7,8-tetrahydropyrido[4,3-d]pyrimidin-4-yl)-3-methylpiperazin-1-yl)acetamide], `CO[C@H]1CN(c2nc(-c3c(C)ccc4[nH]nc(C)c34)nc3c2CN(c2cc(C(C)C)ccc2C)CC3)C[C@@H]1N(C)C` (single isomer, unassigned) [Example 65-H, (trans)-1-(2-(3,5-dimethyl-1H-indazol-4-yl)-6-(5-isopropyl-2-methylphenyl)-5,6,7,8-tetrahydropyrido[4,3-d]pyrimidin-4-yl)-4-methoxy-N,N-dimethylpyrrolidin-3-amine] is 1.5-fold lower in IC50: 6 nM for the first, 4 nM for the second.

`Cc1ccc(C(C)C)cc1N1CCc2nc(-c3cccc4[nH]cc(C)c34)nc(N3CCN(C4COC4)[C@H](C)C3)c2C1` [Example 30-A, (R)-6-(5-Isopropyl-2-methylphenyl)-2-(3-methyl-1H-indol-4-yl)-4-(3-methyl-4-(oxetan-3-yl)piperazin-1-yl)-5,6,7,8-tetrahydropyrido[4,3-d]pyrimidine] and `Cc1ccc(C(C)C)cc1N1CCc2nc(-c3cccc4[nH]cc(C)c34)nc(N3CCC[C@H](O)C3)c2C1` [Example 17-AV, (S)-1-(6-(5-isopropyl-2-methylphenyl)-2-(3-methyl-1H-indol-4-yl)-5,6,7,8-tetrahydropyrido[4,3-d]pyrimidin-4-yl)piperidin-3-ol] are within 1.5-fold of each other in IC50: 16 nM for the first, 12 nM for the second.

Going from `CCn1nc(C2CC2)c(Cl)c1N1CCc2nc(-c3c(C)ccc4[nH]nc(C)c34)nc(N3CC(N(C)C)C3)c2C1` [Example 70-K, 1-(6-(4-chloro-3-cyclopropyl-1-ethyl-1H-pyrazol-5-yl)-2-(3,5-dimethyl-1H-indazol-4-yl)-5,6,7,8-tetrahydropyrido[4,3-d]pyrimidin-4-yl)-N,N-dimethylazetidin-3-amine] to `CCO[C@@H]1CCN(c2nc(-c3c(C)ccc4[nH]nc(C)c34)nc3c2CN(c2c(Cl)c(C4CC4)nn2C)CC3)[C@H](C)C1` [Example 55-J, 6-(4-chloro-3-cyclopropyl-1-methyl-1H-pyrazol-5-yl)-2-(3,5-dimethyl-1H-indazol-4-yl)-4-((2R,4R)-4-ethoxy-2-methylpiperidin-1-yl)-5,6,7,8-tetrahydropyrido[4,3-d]pyrimidine], the IC50 falls from 20 nM to 5 nM (4-fold). The second is the more potent here.

First: Cc1cccc(C)c1-c1nc2c(c(N3CCCC(C)(C)C3)n1)CN(c1cc(C(C)C)nn1C)CC2 [Example 16-I, 2-(2,6-Dimethylphenyl)-4-(3,3-dimethylpiperidin-1-yl)-6-(3-isopropyl-1-methyl-1H-pyrazol-5-yl)-5,6,7,8-tetrdhydropyrido[4,3-d]pyrimidine]
Second: Cc1ccccc1N1CCc2nc(-c3c(C)cccc3C)nc(N3CCOC(C)(C)C3)c2C1 [Example 17-Y, 4-(2-(2,6-dimethylphenyl)-6-(o-tolyl)-5,6,7,8-tetrahydropyrido[4,3-d]pyrimidin-4-yl)-2,2-dimethylmorpholine]
The IC50 of the first is 3.3-fold lower: 48 nM for the first, 160 nM for the second.

`CCc1cccc(CC)c1-c1cc(C)c2c(n1)CCN(c1nnnn1C)C2` [Example 48, 2-(2,6-Diethylphenyl)-4-methyl-6-(1-methyl-1H-tetrazol-5-yl)-5,6,7,8-tetrahydro-1,6-naphthyridine] and `[2H]C1([2H])c2c(C)cc(-c3c(CC)cccc3CC)nc2CC(C)N1c1cc(C(C)C)ccc1C` (single isomer, unassigned) [Example 42-K, 2-(2,6-diethylphenyl)-6-(5-isopropyl-2-methylphenyl)-4,7-dimethyl-5,6,7,8-tetrahydro(5,5-^2H2)-1,6-naphthyridine] are within 1.5-fold of each other in IC50: 198 nM for the first, 217 nM for the second.

First: CO[C@@H]1CCN(c2nc(-c3c(C)ccc4[nH]nc(C)c34)nc3c2CN(c2c(Cl)c(C(F)F)nn2C)CC3)CC1(C)C [Example 55-I, (R)-6-(4-chloro-3-(difluoromethyl)-1-methyl-1H-pyrazol-5-yl)-2-(3,5-dimethyl-1H-indazol-4-yl)-4-(4-methoxy-3,3-dimethylpiperidin-1-yl)-5,6,7,8-tetrahydropyrido[4,3-d]pyrimidine]
Second: CO[C@@H]1CCN(c2nc(-c3cccc4[nH]cc(C)c34)nc3c2CN(c2cc(C(C)C)ccc2C)CC3)CC1(C)C [Example 17-AM, (R)-6-(5-Isopropyl-2-methylphenyl)-4-(4-methoxy-3,3-dimethylpiperidin-1-yl)-2-(3-methyl-1H-indol-4-yl)-5,6,7,8-tetrahydropyrido[4,3-d]pyrimidine]
The IC50 of the first is 2-fold lower: 1 nM for the first, 2 nM for the second. The first is the more potent here.

Compared with `Cc1ccc(C(C)C)cc1N1CCc2nc(-c3cccc4[nH]cc(C)c34)nc(N3CCC[C@@H]3CO)c2C1` [Example 17-AZ, (R)-(1-(6-(5-isopropyl-2-methylphenyl)-2-(3-methyl-1H-indol-4-yl)-5,6,7,8-tetrahydropyrido[4,3-d]pyrimidin-4-yl)pyrrolidin-2-yl)methanol], `Cc1ccc(C(C)C)cc1N1CCc2nc(-c3cccc4[nH]nc(C)c34)cc(C)c2C1` [Example 41-E, 6-(5-isopropyl-2-methylphenyl)-4-methyl-2-(3-methyl-1H-indazol-4-yl)-5,6,7,8-tetrahydro-1,6-naphthyridine] is 1.9-fold lower in IC50: 39 nM for the first, 21 nM for the second.

`COc1ccc(Cl)c(-c2cc(C)c3c(n2)CCN(c2cc(C(C)C)ccc2C)C3)c1` [Example 41-F, 2-(2-chloro-5-methoxyphenyl)-6-(5-isopropyl-2-methylphenyl)-4-methyl-5,6,7,8-tetrahydro-1,6-naphthyridine] was tested, and the IC50 was 550 nM.

In the case of `CO[C@@H]1CCN(c2nc(-c3c(C)ccc4[nH]nc(C)c34)nc3c2CN(c2c(Cl)c(C4CC4)nn2C)CC3)CC1(C)C` [Example 55-G, (R)-6-(4-Chloro-3-cyclopropyl-1-methyl-1H-pyrazol-5-yl)-2-(3,5-dimethyl-1H-indazol-4-yl)-4-(4-methoxy-3,3-dimethylpiperidin-1-yl)-5,6,7,8-tetrahydropyrido[4,3-d]pyrimidine], the IC50 is reported as 4 nM and 2 nM.

tested on: CD11b; test: Human whole blood CD11b up-regulation assay; format: cell-based; conditions: 2 nM human C5a, CD15+ granulocytes, read-out: hCD11b IC50
Experimental: Whole blood was collected in sodium heparin tubes and the assay started within 2 hours of the blood draw. The blood was incubated with compounds in 1% DMSO (dimethyl sulfoxide) at room temperature for 10 minutes with gentle rocking. 2 nM of human C5a was then added for 15 minutes at room temperature with gentle rocking. Following the C5a incubation period cells were washed once with cold FACS (fluorescence-activated cell sorting) buffer (phosphate buffered saline+0.5% bovine serum albumin) FITC (fluorescein isothiocyanate) mouse anti-human CD15 and PE-Cy5 (phycoerythrin-cyanine 5) mouse anti-human CD11b antibodies (Becton Dickinson) were gently mixed with the cells and allowed to incubate for 30 minutes on ice protected from the light. Cells were then washed three times with cold FACS buffer. Red blood cells (RBC) were lysed by incubating with BD FACS lysis buffer (Becton Dickinson) for 10 minutes at room temperature. Cells were pelleted and the lysing procedure was repeated until all RBCs were lysed. The remaining leukocytes were resuspended in BD lysis buffer. Samples were acquired on the LSR^11 flow cytometer and 10,000 events of the CD15+ granulocyte population were collected. The CD11b median fluorescence intensity of the CD 15+ cell population was evaluated using FACSDiva software (Becton Dickinson).

Work on `CCn1nc(C2CC2)c(Cl)c1N1CCc2nc(-c3c(C)ccc4[nH]nc(C)c34)nc(N3CCC3C)c2C1` (single isomer, unassigned) [Example 70-I, 6-(4-chloro-3-cyclopropyl-1-ethyl-1H-pyrazol-5-yl)-2-(3,5-dimethyl-1H-indazol-4-yl)-4-(2-methylazetidin-1-yl)-5,6,7,8-tetrahydropyrido[4,3-d]pyrimidine] yielded an IC50 of 38 nM.

same assay, conditions: Homo sapiens, 2 nM human C5a, CD15+ granulocytes, read-out: hCD11b IC50

First: Cc1ccc(C(C)C)cc1N1CCc2nc(-c3c(C)ccc4[nH]ncc34)nc(N3CCN(CC(N)=O)C[C@H]3C)c2C1 [Example 24-L, (R)-2-(4-(6-(5-isopropyl-2-methylphenyl)-2-(5-methyl-1H-indazol-4-yl)-5,6,7,8-tetrahydropyrido[4,3-d]pyrimidin-4-yl)-3-methylpiperazin-1-yl)acetamide]
Second: Cc1ccc(C(C)C)cc1N1CCc2nc(-c3c(C)ccc4[nH]ncc34)cc(C)c2C1 [Example 41-D, 6-(5-Isopropyl-2-methylphenyl)-4-methyl-2-(5-methyl-1H-indazol-4-yl)-5,6,7,8-tetrahydro-1,6-naphthyridine]
The IC50 of the first is 2.6-fold higher: 391 nM for the first, 153 nM for the second.

Compared with `Cc1ccc(C(C)C)cc1N1CCc2nc(-c3cccc4[nH]cc(C)c34)nc(N3CCN(C4COC4)[C@H](C)C3)c2C1` [Example 30-A, (R)-6-(5-Isopropyl-2-methylphenyl)-2-(3-methyl-1H-indol-4-yl)-4-(3-methyl-4-(oxetan-3-yl)piperazin-1-yl)-5,6,7,8-tetrahydropyrido[4,3-d]pyrimidine], `CO[C@H]1CN(c2nc(-c3c(C)ccc4[nH]nc(C)c34)nc3c2CN(c2cc(C(C)C)ccc2C)CC3)C[C@@H]1N(C)C` (single isomer, unassigned) [Example 65-H, (trans)-1-(2-(3,5-dimethyl-1H-indazol-4-yl)-6-(5-isopropyl-2-methylphenyl)-5,6,7,8-tetrahydropyrido[4,3-d]pyrimidin-4-yl)-4-methoxy-N,N-dimethylpyrrolidin-3-amine] is 100-fold lower in IC50: 5780 nM for the first, 56 nM for the second. The second is the more potent here.

`CCn1nc(C2CC2)c(Cl)c1N1CCc2nc(-c3c(C)ccc4[nH]nc(C)c34)nc(N3CC(N(C)C)C3)c2C1` [Example 70-K, 1-(6-(4-chloro-3-cyclopropyl-1-ethyl-1H-pyrazol-5-yl)-2-(3,5-dimethyl-1H-indazol-4-yl)-5,6,7,8-tetrahydropyrido[4,3-d]pyrimidin-4-yl)-N,N-dimethylazetidin-3-amine] and `CCn1nc(C2CC2)c(Cl)c1N1CCc2nc(-c3c(C)ccc4[nH]nc(C)c34)nc(N3CCC3C)c2C1` (single isomer, unassigned) [Example 70-H, 6-(4-chloro-3-cyclopropyl-1-ethyl-1H-pyrazol-5-yl)-2-(3,5-dimethyl-1H-indazol-4-yl)-4-(2-methylazetidin-1-yl)-5,6,7,8-tetrahydropyrido[4,3-d]pyrimidine] are within 1.5-fold of each other in IC50: 37 nM for the first, 41 nM for the second.

`Cc1ccc2[nH]nc(C)c2c1-c1nc2c(c(N3CCOC[C@H]3C)n1)CN(c1c(F)c(C3CC3)nn1C)CC2` [Example 76-C, (R)-4-(6-(3-Cyclopropyl-4-fluoro-1-methyl-1H-pyrazol-5-yl)-2-(3,5-dimethyl-1H-indazol-4-yl)-5,6,7,8-tetrahydropyrido[4,3-d]pyrimidin-4-yl)-3-methylmorpholine] and `Cc1ccc2[nH]nc(C)c2c1-c1nc2c(c(N3CC[C@@H]4OC[C@]4(C)C3)n1)CN(c1c(Cl)c(C3CC3)nn1C)CC2` (racemic) [Example 69-L, (1S*,6S*)-3-(6-(4-chloro-3-cyclopropyl-1-methyl-1H-pyrazol-5-yl)-2-(3,5-dimethyl-1H-indazol-4-yl)-5,6,7,8-tetrahydropyrido[4,3-d]pyrimidin-4-yl)-1-methyl-7-oxa-3-azabicyclo[4.2.0]octane] are within 1.5-fold of each other in IC50: 46 nM for the first, 54 nM for the second.

With `[2H]C1([2H])c2c(C)cc(-c3c(C)ccc4[nH]ncc34)nc2CCN1c1cc(C(C)C)ccc1C` [Example 43-A, 6-(5-Isopropyl-2-methylphenyl)-4-methyl-2-(5-methyl-1H-indazol-4-yl)-5,6,7,8-tetrahydro(5,5-^2H2)-1,6-naphthyridine] the IC50 was 178 nM.
